In PubChem BioAssay AID1259407 (Chemical Carcinogenesis Research Information System (CCRIS), 2018) one finds mutagenic call data, which are given here for eight compounds.

This data set concerns CCRIS mutagenicity, Ames/micronucleus/aberration tests. The experiment in a line: CCRIS mutagenicity studies.
[1] abbreviates: Test System: AMES SALMONELLA TYPHIMURIUM, Strain/Indicator: TA98, Metabolic Activation: NONE, Method: STANDARD PLATE.
[2] abbreviates: Test System: AMES SALMONELLA TYPHIMURIUM, Strain/Indicator: TA98, Metabolic Activation: RAT, LIVER, S-9, AROCLOR 1254, Method: STANDARD PLATE.
The mark [3] stands for this setting: Test System: AMES SALMONELLA TYPHIMURIUM, Strain/Indicator: TA100, Metabolic Activation: NONE, Method: STANDARD PLATE.
The mark [4] stands for this setting: Test System: AMES SALMONELLA TYPHIMURIUM, Strain/Indicator: TA100, Metabolic Activation: RAT, LIVER, S-9, AROCLOR 1254, Method: STANDARD PLATE.
[5] abbreviates: Test System: AMES SALMONELLA TYPHIMURIUM, Strain/Indicator: TA1537, Metabolic Activation: NONE, Method: STANDARD PLATE.
[6] abbreviates: Test System: AMES SALMONELLA TYPHIMURIUM, Strain/Indicator: TA100, Metabolic Activation: NONE, Method: PREINCUBATION
The mark [7] stands for this setting: Test System: AMES SALMONELLA TYPHIMURIUM, Strain/Indicator: TA98, Metabolic Activation: NONE, Method: PREINCUBATION

Calls of active or inactive are those of the source. No rule for the calls is given here.

In the case of `CC(C)C1=CC2=CC[C@@H]3[C@](C)(CCC[C@@]3(C)C(=O)O)[C@H]2CC1`, the mutagenic call (Test System: AMES SALMONELLA TYPHIMURIUM, Strain/Indicator: TA98, Metabolic Activation: HAMSTER, LIVER, S-9, AROCLOR 1254, Method: STANDARD PLATE) is “inactive; negative”; the mutagenic call under setting [1] was “inactive; negative”; the mutagenic call under setting [2] was “inactive; negative”; the mutagenic call (Test System: AMES SALMONELLA TYPHIMURIUM, Strain/Indicator: TA100, Metabolic Activation: HAMSTER, LIVER, S-9, AROCLOR 1254, Method: STANDARD PLATE) was “inactive; negative”; the mutagenic call under setting [3] was “inactive; negative”; the mutagenic call under setting [4] was “inactive; negative”. Moreover, the mutagenic call (Test System: AMES SALMONELLA TYPHIMURIUM, Strain/Indicator: TA1535, Metabolic Activation: HAMSTER, LIVER, S-9, AROCLOR 1254, Method: STANDARD PLATE) was “inactive; negative”; the mutagenic call (Test System: AMES SALMONELLA TYPHIMURIUM, Strain/Indicator: TA1535, Metabolic Activation: NONE, Method: STANDARD PLATE) is “inactive; negative”; the mutagenic call (Test System: AMES SALMONELLA TYPHIMURIUM, Strain/Indicator: TA1535, Metabolic Activation: RAT, LIVER, S-9, AROCLOR 1254, Method: STANDARD PLATE) is “inactive; negative”; the mutagenic call (Test System: AMES SALMONELLA TYPHIMURIUM, Strain/Indicator: TA1537, Metabolic Activation: HAMSTER, LIVER, S-9, AROCLOR 1254, Method: STANDARD PLATE) was “inactive; negative”; the mutagenic call under setting [5] is “inactive; negative”; the mutagenic call (Test System: AMES SALMONELLA TYPHIMURIUM, Strain/Indicator: TA1537, Metabolic Activation: RAT, LIVER, S-9, AROCLOR 1254, Method: STANDARD PLATE) was “inactive; negative”. The mutagenic call runs as follows: (Test System: AMES SALMONELLA TYPHIMURIUM, Strain/Indicator: TA1538, Metabolic Activation: HAMSTER, LIVER, S-9, AROCLOR 1254, Method: STANDARD PLATE) “inactive; negative”; (Test System: AMES SALMONELLA TYPHIMURIUM, Strain/Indicator: TA1538, Metabolic Activation: NONE, Method: STANDARD PLATE) “inactive; negative”; (Test System: AMES SALMONELLA TYPHIMURIUM, Strain/Indicator: TA1538, Metabolic Activation: RAT, LIVER, S-9, AROCLOR 1254, Method: STANDARD PLATE) “inactive; negative”; (Test System: MOUSE LYMPHOMA, Strain/Indicator: L5178Y (TK+/TK-), Metabolic Activation: NONE, Method: SUSPENSION/PLATE) “active; positive. reevaluation of results: positive”; (Test System: MOUSE LYMPHOMA, Strain/Indicator: L5178Y (TK+/TK-), Metabolic Activation: RAT, LIVER, S-9, AROCLOR 1254, Method: SUSPENSION/PLATE) “inactive; negative. reevaluation of results: negative”.
Consider `ClC(Cl)=C(Cl)/C(Cl)=C(\Cl)SCc1ccccc1`, for which the mutagenic call runs as follows: under setting [6], “inactive; negative”; (Test System: AMES SALMONELLA TYPHIMURIUM, Strain/Indicator: TA100, Metabolic Activation: RAT, LIVER, S-9, AROCLOR 1254, Method: PREINCUBATION) “active; positive”.
As to `CN(C)c1ccc(N=NS(=O)(=O)O)cc1`, the mutagenic call by setting is: (Test System: AMES SALMONELLA TYPHIMURIUM, Strain/Indicator: TA97, Metabolic Activation: HAMSTER, LIVER, S-9, AROCLOR 1254 (10%), Method: PREINCUBATION) “active; positive”; (Test System: AMES SALMONELLA TYPHIMURIUM, Strain/Indicator: TA97, Metabolic Activation: NONE, Method: PREINCUBATION) “active; positive”; (Test System: AMES SALMONELLA TYPHIMURIUM, Strain/Indicator: TA97, Metabolic Activation: RAT, LIVER, S-9, AROCLOR 1254 (10%), Method: PREINCUBATION) “active; positive”; (Test System: AMES SALMONELLA TYPHIMURIUM, Strain/Indicator: TA98, Metabolic Activation: HAMSTER, LIVER, S-9, AROCLOR 1254 (10%), Method: PREINCUBATION) “active; positive”; under setting [7], “active; positive”; under setting [1], “active; positive”. Moreover, the mutagenic call (Test System: AMES SALMONELLA TYPHIMURIUM, Strain/Indicator: TA98, Metabolic Activation: RAT, LIVER, S-9, AROCLOR 1254 (10%), Method: PREINCUBATION) is “active; positive”; the mutagenic call (Test System: AMES SALMONELLA TYPHIMURIUM, Strain/Indicator: TA98, Metabolic Activation: S-9 MIX, Method: STANDARD PLATE) is “active; positive”; the mutagenic call (Test System: AMES SALMONELLA TYPHIMURIUM, Strain/Indicator: TA100, Metabolic Activation: HAMSTER, LIVER, S-9, AROCLOR 1254 (10%), Method: PREINCUBATION) is “active; positive”; the mutagenic call under setting [6] is “active; positive”; the mutagenic call (Test System: AMES SALMONELLA TYPHIMURIUM, Strain/Indicator: TA100, Metabolic Activation: RAT, LIVER, S-9, AROCLOR 1254 (10%), Method: PREINCUBATION) is “active; positive”; the mutagenic call (Test System: AMES SALMONELLA TYPHIMURIUM, Strain/Indicator: TA1535, Metabolic Activation: HAMSTER, LIVER, S-9, AROCLOR 1254 (10%), Method: PREINCUBATION) was “active; positive”. For the same compound, the mutagenic call reads like this: (Test System: AMES SALMONELLA TYPHIMURIUM, Strain/Indicator: TA1535, Metabolic Activation: NONE, Method: PREINCUBATION) “inactive; negative”; (Test System: AMES SALMONELLA TYPHIMURIUM, Strain/Indicator: TA1535, Metabolic Activation: RAT, LIVER, S-9, AROCLOR 1254 (10%), Method: PREINCUBATION) “inactive; negative”; (Test System: E. COLI, Strain/Indicator: WP2, Metabolic Activation: NONE, Method: STANDARD PLATE) “active; positive”; (Test System: E. COLI, Strain/Indicator: WP2 UVRA, Metabolic Activation: NONE, Method: STANDARD PLATE) “active; positive”.
As for `O=C1c2ccccc2C(=O)c2c1cc(O[C@H]1O[C@H](CO[C@@H]3OC[C@@H](O)[C@H](O)[C@H]3O)[C@@H](O)[C@H](O)[C@H]1O)c(CO)c2O`, the mutagenic call (Test System: AMES SALMONELLA TYPHIMURIUM, Strain/Indicator: TA98, Metabolic Activation: NONE, Method: PREINCUBATION (PH 6.5 OR 7.4)) is “inactive; negative”; the mutagenic call (Test System: AMES SALMONELLA TYPHIMURIUM, Strain/Indicator: TA98, Metabolic Activation: RAT, LIVER, S-9, SODIUM BARBITAL AND BETA-NAPHTHOFLAVONE, Method: PREINCUBATION (PH 6.5 OR 7.4)) is “inactive; negative”; the mutagenic call (Test System: AMES SALMONELLA TYPHIMURIUM, Strain/Indicator: TA100, Metabolic Activation: NONE, Method: PREINCUBATION (PH 6.5 OR 7.4)) is “active; positive”; the mutagenic call (Test System: AMES SALMONELLA TYPHIMURIUM, Strain/Indicator: TA100, Metabolic Activation: RAT, LIVER, S-9, SODIUM BARBITAL AND BETA-NAPHTHOFLAVONE, Method: PREINCUBATION) is “inactive; negative”.
For the compound `CC(C)(C)C1CCC2(CC1)CO2` (stereo unspecified), under setting [3], the mutagenic call was “inactive; negative”.
Take `CCCCCC(=O)Cc1cc(O)cc2c1C(=O)Oc1cc(O)c(C(=O)O)c(CCCCC)c1O2`: the mutagenic call is “inactive; negative” under setting [7]; “inactive; negative” under setting [1]; “inactive; negative” (Test System: AMES SALMONELLA TYPHIMURIUM, Strain/Indicator: TA98, Metabolic Activation: RAT, LIVER, S-9, Method: PREINCUBATION); “inactive; negative” (Test System: AMES SALMONELLA TYPHIMURIUM, Strain/Indicator: TA98, Metabolic Activation: RAT, LIVER, S-9, Method: STANDARD PLATE); “inactive; negative” under setting [6]; “inactive; negative” under setting [3]. For the same compound, the mutagenic call is, setting by setting: (Test System: AMES SALMONELLA TYPHIMURIUM, Strain/Indicator: TA100, Metabolic Activation: RAT, LIVER, S-9, Method: PREINCUBATION) “inactive; negative”; (Test System: AMES SALMONELLA TYPHIMURIUM, Strain/Indicator: TA100, Metabolic Activation: RAT, LIVER, S-9, Method: STANDARD PLATE) “inactive; negative”.
For `Cc1cccc2c1-c1ccccc1C2C` (stereo unspecified), the mutagenic call by setting is: under setting [2], “active; positive”; under setting [4], “active; positive”.
On to `[N-]=[N+]=Nc1ccc(Nc2c3ccccc3nc3ccccc23)cc1`, for which the mutagenic call under setting [5] is “active; positive”.
